This is an account of results in ChEMBL document CHEMBL1201862, “PubChem BioAssay data set” (2004).

Test systems include UO-31; KM12; SW-620; MDA-N; 786-0; LOX IMVI; OVCAR-8; NCI/ADR-RES; OVCAR-3; RPMI-8226; UACC-62; NCI-H522; HCC 2998; NCI-H23; OVCAR-4; RXF 393; K562; COLO 205; T47D; SK-MEL-2.
Experiment in all cases: NCI tumour cell line growth inhibition, 48 h

Where a name gives a salt, the structure may show the parent alone.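 Exposure lasted 48 hours, with cells grown in 96-well plates and compounds tested at five concentrations. Abbreviation: GI50, concentration required for 50% inhibition of growth.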 Calls of active or inactive are those of the source. No stated cut-off is given here; in the data, active = GI50 up to about 1.1 µM and inactive = higher.

As to `CC(C)CN(CC#N)CC(C)C`, the GI50 in the experiment with UO-31, with KM12, with SW-620, in the experiment on MDA-N, in the experiment with 786-0 and with LOX IMVI was > 100 µM (inactive) each time. Besides, the GI50 in the experiment on OVCAR-8 was > 100 µM (inactive); in the experiment on NCI/ADR-RES, > 100 µM (inactive); with OVCAR-3, > 100 µM (inactive); in the experiment with RPMI-8226, 48.9 µM (inactive); in the experiment on UACC-62, > 100 µM (inactive); in the experiment with NCI-H522, > 100 µM (inactive). The GI50 with HCC 2998, in the experiment on NCI-H23, in the experiment on OVCAR-4, with RXF 393, in the experiment on K562 and in the experiment on COLO 205 was > 100 µM (inactive) in each case. Moreover, the GI50 in the experiment on T47D is > 100 µM (inactive).
On to `O=C1c2cc3c(cc2CC12Cc1cc4c(cc1C2=O)CCC4)CCCC3` (stereo not drawn), for which the GI50 in the experiment with UO-31 is > 100 µM (inactive); in the experiment on SW-620, > 100 µM (inactive); in the experiment with MDA-N, > 100 µM (inactive); in the experiment on 786-0, 76 µM (inactive); in the experiment on LOX IMVI it was > 100 µM (inactive); in the experiment with OVCAR-8, > 100 µM (inactive). Besides, the GI50 in the experiment with NCI/ADR-RES, with OVCAR-3, with RPMI-8226, with SK-MEL-2, in the experiment on NCI-H522 and in the experiment with HCC 2998 was > 100 µM (inactive) in each case. Besides, the GI50 in the experiment with NCI-H23, with OVCAR-4, in the experiment on RXF 393, in the experiment with K562 and in the experiment with T47D was > 100 µM (inactive) throughout.
As to `CCn1c2nc(=O)n(CCCCCCCCSC(c3ccccc3)(c3ccccc3)c3ccccc3)c(=O)c-2nc2ccccc21`, the GI50 in the experiment with UO-31 was 6.65 µM (inactive); in the experiment on KM12 it was 9.91 µM (inactive); with SW-620, 3.41 µM (inactive); in the experiment on MDA-N, 7.14 µM (inactive); with 786-0, 14.6 µM (inactive); in the experiment with LOX IMVI, 53.5 µM (inactive). Moreover, the GI50 with OVCAR-8 is 43.6 µM (inactive); in the experiment on NCI/ADR-RES, > 100 µM (inactive); in the experiment with OVCAR-3, 6.7 µM (inactive); in the experiment with RPMI-8226, 4.22 µM (inactive); in the experiment with SK-MEL-2, 8.41 µM (inactive); with NCI-H522, 3.13 µM (inactive). In addition, the GI50 with HCC 2998 was 2.67 µM (inactive); with NCI-H23, 8.3 µM (inactive); with OVCAR-4, 9.53 µM (inactive); in the experiment with RXF 393, 11.3 µM (inactive); in the experiment on K562, 5.55 µM (inactive); with T47D, 8.05 µM (inactive).
For `C/C(=N\c1ccc(Cl)cc1)c1ccncc1`, the GI50 with UO-31 is 4.04 µM (inactive); with KM12, > 100 µM (inactive); with SW-620, 2.72 µM (inactive); in the experiment on MDA-N it was > 100 µM (inactive); with 786-0 it was > 100 µM (inactive); in the experiment with LOX IMVI, > 100 µM (inactive). The GI50 was > 100 µM (inactive) in the experiment on OVCAR-8; > 100 µM (inactive) with NCI/ADR-RES; 41 µM (inactive) in the experiment on OVCAR-3; 7.08 µM (inactive) in the experiment on RPMI-8226; > 100 µM (inactive) in the experiment on SK-MEL-2; > 100 µM (inactive) in the experiment with NCI-H522. The GI50 in the experiment with HCC 2998 is > 100 µM (inactive); in the experiment with NCI-H23, 67.8 µM (inactive); in the experiment with OVCAR-4, > 100 µM (inactive); in the experiment on RXF 393, > 100 µM (inactive); in the experiment with K562 it was > 100 µM (inactive); in the experiment with COLO 205 it was 5.64 µM (inactive). Also, in the experiment on T47D, the GI50 was 0.809 µM (active).
On to `CC1=C(C)C1[N+](=O)[O-]`, for which the GI50 with UO-31, in the experiment on KM12, with SW-620, in the experiment with MDA-N, with 786-0 and with LOX IMVI was > 100 µM (inactive) throughout. Further, the GI50 in the experiment with OVCAR-8, in the experiment on NCI/ADR-RES, in the experiment with OVCAR-3, in the experiment with RPMI-8226, with UACC-62 and with NCI-H522 was > 100 µM (inactive) in each case. Also, the GI50 in the experiment with HCC 2998, in the experiment on NCI-H23, in the experiment with OVCAR-4, in the experiment with RXF 393, with K562 and in the experiment on COLO 205 was > 100 µM (inactive) throughout. Besides, the GI50 in the experiment with T47D is > 100 µM (inactive).
Take `Cc1ccc(/N=c2/oc3c(ccc4ccccc43)nc2Nc2ccc(C)cc2)cc1`: the GI50 in the experiment on UO-31, in the experiment with KM12, in the experiment with SW-620, in the experiment with MDA-N, in the experiment on 786-0 and with LOX IMVI was > 100 µM (inactive) throughout. For the same compound, the GI50 in the experiment on OVCAR-8, in the experiment on NCI/ADR-RES, with RPMI-8226, in the experiment on SK-MEL-2, with UACC-62 and with NCI-H522 was > 100 µM (inactive) each time. In addition, the GI50 with HCC 2998, in the experiment on NCI-H23, with OVCAR-4, with RXF 393, in the experiment on K562 and in the experiment with COLO 205 was > 100 µM (inactive) in each case. Besides, the GI50 in the experiment with T47D was > 100 µM (inactive).
As to `CC(=O)C1=CC=C/C1=N\Nc1ccccc1`, the GI50 with UO-31 is 13.1 µM (inactive); in the experiment on KM12, 4.38 µM (inactive); in the experiment on SW-620, 3.82 µM (inactive); in the experiment on MDA-N it was 6.22 µM (inactive); in the experiment on 786-0, 4.31 µM (inactive); with LOX IMVI, 2.84 µM (inactive). For the same compound, the GI50 in the experiment on OVCAR-8 was 9.73 µM (inactive); in the experiment on NCI/ADR-RES, 5.28 µM (inactive); in the experiment with OVCAR-3 it was 3.22 µM (inactive); in the experiment with RPMI-8226 it was 1.98 µM (inactive); in the experiment on SK-MEL-2 it was 13.4 µM (inactive); in the experiment with UACC-62, 6.97 µM (inactive). For the same compound, the GI50 with NCI-H522 was 4.71 µM (inactive); in the experiment with HCC 2998, 6.07 µM (inactive); in the experiment with NCI-H23 it was 9.06 µM (inactive); in the experiment on OVCAR-4, 5.71 µM (inactive); in the experiment on RXF 393, 11.6 µM (inactive); with K562, 3.94 µM (inactive). Further, the GI50 in the experiment on COLO 205 was 9.42 µM (inactive); in the experiment on T47D, 3.33 µM (inactive).
For `COc1ccc2c(c1O)[C@@]13C=C(O)C(=O)C=C1[C@@H](C2)N(C)CC3`, the GI50 was 51.9 µM (inactive) in the experiment with UO-31; 52.1 µM (inactive) in the experiment on KM12; 47 µM (inactive) in the experiment on MDA-N; 75 µM (inactive) in the experiment with 786-0; 31.6 µM (inactive) in the experiment on LOX IMVI; 51.9 µM (inactive) in the experiment with OVCAR-8. For the same compound, the GI50 with NCI/ADR-RES was 51.9 µM (inactive); with OVCAR-3, 26.9 µM (inactive); with RPMI-8226 it was > 100 µM (inactive); with SK-MEL-2 it was 47.9 µM (inactive); in the experiment with UACC-62 it was > 100 µM (inactive); in the experiment on NCI-H522, 28.8 µM (inactive). Also, the GI50 was > 100 µM (inactive) in the experiment with HCC 2998; 57.4 µM (inactive) in the experiment with NCI-H23; 62.4 µM (inactive) in the experiment with OVCAR-4; 48.1 µM (inactive) in the experiment with RXF 393; > 100 µM (inactive) in the experiment on K562; > 100 µM (inactive) in the experiment with COLO 205. In addition, the GI50 in the experiment with T47D is 63.4 µM (inactive).
Turning to `OC1c2ccccc2CCC1CN1CCN(CCOC(c2ccc(F)cc2)c2ccc(F)cc2)CC1` (stereo not drawn), the GI50 was 20.5 µM (inactive) with KM12; 16.2 µM (inactive) in the experiment on SW-620; 15.8 µM (inactive) in the experiment with MDA-N; 11.7 µM (inactive) in the experiment with 786-0; 13.8 µM (inactive) in the experiment with LOX IMVI; 14.3 µM (inactive) in the experiment on OVCAR-8. Besides, the GI50 with NCI/ADR-RES is 11.2 µM (inactive); with OVCAR-3 it was 17.4 µM (inactive); with RPMI-8226, 5.77 µM (inactive); with SK-MEL-2, 16.6 µM (inactive); with UACC-62, 13.8 µM (inactive); in the experiment on NCI-H522, 15.7 µM (inactive). For the same compound, the GI50 in the experiment on HCC 2998 is 4.79 µM (inactive); in the experiment with NCI-H23 it was 14.5 µM (inactive); with OVCAR-4 it was 50.5 µM (inactive); in the experiment with RXF 393 it was 6.18 µM (inactive); in the experiment with K562 it was 2.94 µM (inactive); with COLO 205, 1.72 µM (inactive). Besides, in the experiment with T47D, the GI50 was 12.5 µM (inactive).
For the compound `CN1C[C@H](C(=O)N[C@]2(C)O[C@@]3(O)[C@@H]4CCCN4C(=O)[C@H](Cc4ccccc4)N3C2=O)C=C2c3cccc4[nH]cc(c34)C[C@H]21` [ERGOTAMINE TARTRATE], the GI50 was 29.1 µM (inactive) in the experiment with UO-31; 28.8 µM (inactive) with KM12; 23.4 µM (inactive) in the experiment on SW-620; 18.5 µM (inactive) in the experiment on MDA-N; 20 µM (inactive) with 786-0; 15.5 µM (inactive) in the experiment on LOX IMVI. Also, the GI50 in the experiment with OVCAR-8 was 19.3 µM (inactive); in the experiment on NCI/ADR-RES, 26.3 µM (inactive); in the experiment with OVCAR-3 it was 18.3 µM (inactive); with RPMI-8226, 22.9 µM (inactive); in the experiment on SK-MEL-2, 17.4 µM (inactive); in the experiment on UACC-62 it was 16 µM (inactive). For the same compound, the GI50 with NCI-H522 is 16.3 µM (inactive); with NCI-H23 it was 21.5 µM (inactive); with OVCAR-4, 20.7 µM (inactive); in the experiment with RXF 393, 18 µM (inactive); in the experiment on K562, 25.4 µM (inactive); with COLO 205 it was 16.5 µM (inactive). In the experiment on T47D, the GI50 is 33 µM (inactive).
